In PubChem BioAssay AID256 (DTP/NCI, 2004):
Where “and” joins values, the source holds several entries; their conditions need not be identical. Equal values may be shown once. Inconclusive results and toxic doses are left out. How the source made its calls: active means survival T/C of 150% or more; inactive means T/C below 125% in these data.

Tested on: CD2F1 mice, L1210 leukemia ip, survival T/C
Assay: NCI In Vivo Anticancer Drug Screen. Data for tumor model L1210 Leukemia (intraperitoneal) in CD2F1 (CDF1) mice
Settings: higher = longer survival
In short: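 Each value reflects a quotient of treated over vehicle control outcomes in mice with a transplanted tumor.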

[1] = endpoint: mean survival time, dose: 25.0 mg/kg/injection, schedule: Q01DX009 (ip), vehicle: saline with Tween-80
[2] = endpoint: mean survival time, dose: 50.0 mg/kg/injection, schedule: Q01DX009 (ip), vehicle: saline with Tween-80
[3] = endpoint: mean survival time, dose: 100.0 mg/kg/injection, schedule: Q01DX009 (ip), vehicle: saline with Tween-80
[4] = endpoint: mean survival time, dose: 100.0 mg/kg/injection, schedule: Q04DX003 (ip), vehicle: saline with Tween-80
[5] = endpoint: mean survival time, dose: 200.0 mg/kg/injection, schedule: Q04DX003 (ip), vehicle: saline with Tween-80
[6] = endpoint: mean survival time, dose: 400.0 mg/kg/injection, schedule: Q04DX003 (ip), vehicle: saline with Tween-80
[7] = endpoint: mean survival time, dose: 200.0 mg/kg/injection, schedule: Q01DX009 (ip), vehicle: saline with Tween-80
[8] = endpoint: mean survival time, dose: 400.0 mg/kg/injection, schedule: Q01DX009 (ip), vehicle: saline with Tween-80
[9] = endpoint: mean survival time, dose: 25.0 mg/kg/injection, schedule: Q01DX009 (ip), vehicle: saline
[10] = endpoint: mean survival time, dose: 50.0 mg/kg/injection, schedule: Q01DX009 (ip), vehicle: saline
[11] = endpoint: mean survival time, dose: 100.0 mg/kg/injection, schedule: Q01DX009 (ip), vehicle: saline
[12] = endpoint: mean survival time, dose: 100.0 mg/kg/injection, schedule: Q04DX003 (ip), vehicle: saline
[13] = endpoint: mean survival time, dose: 200.0 mg/kg/injection, schedule: Q01DX009 (ip), vehicle: saline
[14] = endpoint: mean survival time, dose: 200.0 mg/kg/injection, schedule: Q04DX003 (ip), vehicle: saline
[15] = endpoint: mean survival time, dose: 400.0 mg/kg/injection, schedule: Q04DX003 (ip), vehicle: saline
[16] = endpoint: mean survival time, dose: 100.0 mg/kg/injection, schedule: Q01DX001 (ip), vehicle: saline with Tween-80
[17] = endpoint: mean survival time, dose: 200.0 mg/kg/injection, schedule: Q01DX001 (ip), vehicle: saline with Tween-80
[18] = endpoint: mean survival time, dose: 400.0 mg/kg/injection, schedule: Q01DX001 (ip), vehicle: saline with Tween-80

Measured: T/C

CCCCCOC(CN)C(Cl)(Cl)Cl (stereo not given)
inactive: endpoint: mean survival time, dose: 12.5 mg/kg/injection, schedule: Q01DX009 (ip), vehicle: saline with Tween-80 101 % of control | [1] 96 % of control | [2] 95 % of control | [3] 98 % of control

CC(=O)N1CCN(C(C)=O)c2ccccc21
inactive: [4] 101 % of control | [5] 101 % of control | [6] 93 % of control

Cc1cc2oc(=O)cc(N3CCOCC3)c2c(=O)o1
inactive: [4] 110 % of control | [5] 109 % of control

CC1CNC(=S)S1 (stereo not given)
inactive: [3] 94 % of control | [4] 97 % of control | [7] 109 % of control | [5] 94 % of control | [8] 105 % of control | [6] 101 % of control

Nc1nc2ncccc2[nH]1
inactive: endpoint: mean survival time, dose: 12.5 mg/kg/injection, schedule: Q01DX005 (ip), vehicle: other 108 % of control | endpoint: mean survival time, dose: 25.0 mg/kg/injection, schedule: Q01DX005 (ip), vehicle: other 107 % of control | endpoint: mean survival time, dose: 50.0 mg/kg/injection, schedule: Q01DX005 (ip), vehicle: other 104 % of control | endpoint: mean survival time, dose: 100.0 mg/kg/injection, schedule: Q01DX005 (ip), vehicle: other 101 % of control | endpoint: mean survival time, dose: 200.0 mg/kg/injection, schedule: Q01DX005 (ip), vehicle: other 103 % of control

Cc1cc(N(C)C)ccc1N=Nc1cc[n+]([O-])c(C)c1
inactive: [1] 103 % of control | [2] 108 % of control | [3] 103 % of control | [4] 104 % of control | [5] 102 % of control | [6] 104 % of control

CN(C)N=Nc1ccc(C(=O)O)cc1
inactive: [9] 112 % of control | endpoint: mean survival time, dose: 25.0 mg/kg/injection, schedule: Q04DX003 (ip), vehicle: saline 96 % of control | endpoint: mean survival time, dose: 45.0 mg/kg/injection, schedule: Q01DX009 (ip), vehicle: saline 124 % of control | [10] 124 % of control | endpoint: mean survival time, dose: 50.0 mg/kg/injection, schedule: Q04DX003 (ip), vehicle: saline 102 % of control | [12] 109 % of control | [13] 90 % of control | [14] 123 % of control | [15] 103 % of control | endpoint: median survival time, dose: 25.0 mg/kg/injection, schedule: Q01DX005 (ip), vehicle: saline 122 % of control | endpoint: median survival time, dose: 36.0 mg/kg/injection, schedule: Q01DX005 (ip), vehicle: saline 116 % of control | endpoint: median survival time, dose: 50.0 mg/kg/injection, schedule: Q01DX005 (ip), vehicle: saline 124 % of control | endpoint: median survival time, dose: 200.0 mg/kg/injection, schedule: Q01DX005 (ip), vehicle: saline 112 % of control
active: endpoint: mean survival time, dose: 65.0 mg/kg/injection, schedule: Q01DX009 (ip), vehicle: saline 154 % of control | [11] 172 % of control | endpoint: median survival time, dose: 100.0 mg/kg/injection, schedule: Q01DX005 (ip), vehicle: saline 151 % of control and 170 % of control | endpoint: median survival time, dose: 166.6 mg/kg/injection, schedule: Q01DX005 (ip), vehicle: saline 179 % of control

CC1=Nc2cc(C)c(C)cc2N2C1=CC1=C(C(=O)c3cc4ccccc4cc3C1=O)C2C (stereo not given)
inactive: endpoint: mean survival time, dose: 25.0 mg/kg/injection, schedule: Q04DX003 (ip), vehicle: saline with Tween-80 97 % of control | endpoint: mean survival time, dose: 50.0 mg/kg/injection, schedule: Q04DX003 (ip), vehicle: saline with Tween-80 108 % of control | [12] 110 % of control | [14] 107 % of control

CC[n+]1c(-c2ccccc2)c2cc(N)ccc2c2ccc(N)cc21 (tested in a mixture with another compound)
inactive: endpoint: mean survival time, dose: 5.0 mg/kg/injection, schedule: Q01DX009 (ip), vehicle: water 104 % of control | endpoint: mean survival time, dose: 10.0 mg/kg/injection, schedule: Q01DX009 (ip), vehicle: water 104 % of control | endpoint: mean survival time, dose: 20.0 mg/kg/injection, schedule: Q01DX009 (ip), vehicle: water 104 % of control | endpoint: mean survival time, dose: 40.0 mg/kg/injection, schedule: Q01DX009 (ip), vehicle: water 102 % of control | endpoint: mean survival time, dose: 80.0 mg/kg/injection, schedule: Q01DX009 (ip), vehicle: water 86 % of control

C=CCOC1C=CCCC1 (stereo not given)
inactive: endpoint: mean survival time, dose: 100.0 mg/kg/injection, schedule: Q04DX002 (ip), vehicle: saline 100 % of control | endpoint: mean survival time, dose: 200.0 mg/kg/injection, schedule: Q04DX002 (ip), vehicle: saline 100 % of control | endpoint: mean survival time, dose: 400.0 mg/kg/injection, schedule: Q04DX002 (ip), vehicle: saline 91 % of control

Cc1cc(-c2ccccc2)c2c(C#N)cn(-c3ccccc3)c2n1
inactive: endpoint: mean survival time, dose: 100.0 mg/kg/injection, schedule: Q01DX001 (ip), vehicle: saline 87 % of control | endpoint: mean survival time, dose: 200.0 mg/kg/injection, schedule: Q01DX001 (ip), vehicle: saline 92 % of control | endpoint: mean survival time, dose: 400.0 mg/kg/injection, schedule: Q01DX001 (ip), vehicle: saline 92 % of control

CC1OC(=O)C2(C(C)C)CC12 (stereo not given)
inactive: endpoint: mean survival time, dose: 9.5 mg/kg/injection, schedule: Q01DX001 (ip), vehicle: other 103 % of control | endpoint: mean survival time, dose: 19.0 mg/kg/injection, schedule: Q01DX001 (ip), vehicle: other 106 % of control

CC(=O)C/C=C(\C)CCC=C(C)C
inactive: endpoint: mean survival time, dose: 100.0 mg/kg/injection, schedule: Q04DX003 (ip), vehicle: acetone 91 % of control | endpoint: mean survival time, dose: 200.0 mg/kg/injection, schedule: Q04DX003 (ip), vehicle: acetone 94 % of control | endpoint: mean survival time, dose: 400.0 mg/kg/injection, schedule: Q04DX003 (ip), vehicle: acetone 98 % of control

FC(F)(F)c1nc2nccnc2[nH]1
inactive: [10] 95 % of control | [11] 91 % of control | [13] 93 % of control

CC(=O)OC1OC(CO)C(OC(C)=O)C(OC(C)=O)C1OC(C)=O (stereo not given)
inactive: endpoint: mean survival time, dose: 100.0 mg/kg/injection, schedule: Q01DX009 (ip), vehicle: saline sonified 97 % of control | endpoint: mean survival time, dose: 200.0 mg/kg/injection, schedule: Q01DX009 (ip), vehicle: saline sonified 97 % of control | endpoint: mean survival time, dose: 400.0 mg/kg/injection, schedule: Q01DX009 (ip), vehicle: saline sonified 98 % of control

O=C1CC(=Nc2ccc([N+](=O)[O-])cc2)NN1c1c(Cl)cc(Cl)cc1Cl
inactive: [4] 101 % of control | [5] 97 % of control | [6] 97 % of control

Nc1nc(-c2ccccc2)nc2[nH]ncc12
inactive: [16] 95 % of control | [17] 95 % of control | [18] 89 % of control

Cc1ccc(S(=O)(=O)Nc2ccc([N+](=O)[O-])cc2OS(=O)(=O)c2ccc(C)cc2)cc1
inactive: endpoint: mean survival time, dose: 100.0 mg/kg/injection, schedule: Q04DX003 (ip), vehicle: alcohol 100 % of control | endpoint: mean survival time, dose: 200.0 mg/kg/injection, schedule: Q04DX003 (ip), vehicle: alcohol 95 % of control | endpoint: mean survival time, dose: 400.0 mg/kg/injection, schedule: Q04DX003 (ip), vehicle: alcohol 92 % of control

CNN=C1CCCC1
inactive: endpoint: mean survival time, dose: 12.5 mg/kg/injection, schedule: Q01DX009 (ip), vehicle: saline 97 % of control | [9] 102 % of control

NC(=O)NC1CC1(c1ccccc1)c1ccccc1 (stereo not given)
inactive: endpoint: mean survival time, dose: 177.0 mg/kg/injection, schedule: Q01DX001 (ip), vehicle: other 94 % of control | endpoint: mean survival time, dose: 267.0 mg/kg/injection, schedule: Q01DX001 (ip), vehicle: other 96 % of control | endpoint: mean survival time, dose: 400.0 mg/kg/injection, schedule: Q01DX001 (ip), vehicle: other 100 % of control

CN1CSC(=S)N(Cc2ccccc2)C1
inactive: [3] 93 % of control | [7] 93 % of control | [8] 93 % of control

CCCC(NC(=O)CN)C(=O)O (stereo not given)
inactive: [12] 100 % of control | [14] 97 % of control | [15] 102 % of control

CCC(C)OC(=O)Nc1ccccc1 (stereo not given)
inactive: [3] 96 % of control | [4] 94 % of control | [7] 98 % of control | [5] 94 % of control | [8] 98 % of control | [6] 94 % of control

CN(C)/C=C/C#N
inactive: endpoint: mean survival time, dose: 75.0 mg/kg/injection, schedule: Q01DX001 (ip), vehicle: saline 102 % of control

COc1ccc(OC)c(C2N(Cc3ccccc3N(C)C)CCCN2Cc2ccccc2N(C)C)c1
inactive: [4] 92 % of control | [5] 88 % of control

O=C(NCCCl)Nc1ccccc1Cl
inactive: [16] 90 % of control | [17] 94 % of control | [18] 98 % of control

C[N+](C)(Cc1ccccc1)C1c2ccccc2-c2ccc(Cl)cc21 (stereo not given)
inactive: endpoint: mean survival time, dose: 50.0 mg/kg/injection, schedule: Q04DX002 (ip), vehicle: saline with Tween-80 103 % of control

O=CNc1ccc(O)cc1
inactive: [4] 93 % of control | [5] 101 % of control | [6] 103 % of control
